These results are taken from patent US12441722B2, “Therapeutic agents and methods of treatment” (University of Florida Research Foundation, Incorporated, priority 2020, dated 2025).

In the first assay the test system is MOLT-4. Put plainly: Cell viability assay (tetrazolium-based MTS) in MOLT4 cells. The conditions noted are these: Homo sapiens, MOLT-4, MOLT4 acute lymphoblastic leukemia cells, 48 h incubation. How it is done:
Cancer cells from acute lymphoblastic leukemia (MOLT4) were incubated with increasing concentrations of compounds of Examples 1-9 for 48 h. Cell viability was measured by tetrazolium-based MTS assay. 5×10^4 to 1×10^5 suspension cells or 3×10^3 to 5×10^3 adherent cells were seeded and treated in 96-well plates for 48 h. The EC50 values of individual agents were calculated with GraphPad Prism.
The compound `Cc1ncsc1-c1ccc([C@H](C)NC(=O)[C@@H]2C[C@@H](O)CN2C(=O)[C@@H](NC(=O)CCCCCCCCCS(=O)(=O)NC(=O)c2nc(N3CCc4cccc(C(=O)Nc5nc6ccccc6s5)c4C3)ccc2-c2cnn(CC34CC5CC(CC(C5)C3)C4)c2C)C(C)(C)C)cc1` [degrader #15, 2-(5-(1-(adamantan-1-ylmethyl)-5-methyl-1H-pyrazol-4-yl)-6-(((10-(((S)-1-((2S,4R)-4-hydroxy-2-(((S)-1-(4-(4-methylthiazol-5-yl)phenyl)ethyl)carbamoyl)pyrrolidin-1-yl)-3,3-dimethyl-1-oxobutan-2-yl)amino)-10-oxodecyl)sulfonyl)carbamoyl)pyridin-2-yl)-N-(benzo[d]thiazol-2-yl)-1,2,3,4-tetrahydroisoquinoline-8-carboxamide] displayed a concentration for a half-maximal effect (EC50) of 10 to 100 nM. Same read-out and setting: the figure for `Cc1ncsc1-c1ccc([C@H](CC(=O)NCCCCCNC(=O)c2nc(N3CCc4cccc(C(=O)Nc5nc6ccccc6s5)c4C3)ccc2-c2cnn(CC34CC5CC(CC(C5)C3)C4)c2C)NC(=O)[C@@H]2C[C@@H](O)CN2C(=O)[C@@H](NC(=O)C2(C#N)CC2)C(C)(C)C)cc1` [degrader #23, 2-(5-(1-(adamantan-1-ylmethyl)-5-methyl-1H-pyrazol-4-yl)-6-((5-((S)-3-((2S,4R)-1-((S)-2-(1-cyanocyclopropane-1-carboxamido)-3,3-dimethylbutanoyl)-4-hydroxypyrrolidine-2-carboxamido)-3-(4-(4-methylthiazol-5-yl)phenyl)propanamido)pentyl)carbamoyl)pyridin-2-yl)-N-(benzo[d]thiazol-2-yl)-1,2,3,4-tetrahydroisoquinoline-8-carboxamide] is 10 to 100 nM; for `Cc1c(-c2ccc(N3CCc4cccc(C(=O)Nc5nc6ccccc6s5)c4C3)nc2C(=O)NS(=O)(=O)CCCn2cc(COCCOCCNc3cccc4c3C(=O)N(C3CCC(=O)NC3=O)C4=O)nn2)cnn1CC12CC3CC(CC(C3)C1)C2` (stereo not shown) [degrader #1, 2-(5-(1-(adamantan-1-ylmethyl)-5-methyl-1H-pyrazol-4-yl)-6-(((3-(4-((2-(2-((2-(2,6-dioxopiperidin-3-yl)-1,3-dioxoisoindolin-4-yl)amino)ethoxy)ethoxy)methyl)-1H-1,2,3-triazol-1-yl)propyl)sulfonyl)carbamoyl)pyridin-2-yl)-N-(benzo[d]thiazol-2-yl)-1,2,3,4-tetrahydroisoquinoline-8-carboxamide] it is 10 to 100 nM; for `Cc1ncsc1-c1ccc([C@H](CC(=O)NCCCCNC(=O)c2nc(N3CCc4cccc(C(=O)Nc5nc6ccccc6s5)c4C3)ccc2-c2cnn(CC34CC5CC(CC(C5)C3)C4)c2C)NC(=O)[C@@H]2C[C@@H](O)CN2C(=O)[C@@H](NC(=O)C2(C#N)CC2)C(C)(C)C)cc1` [degrader #22, 2-(5-(1-(adamantan-1-ylmethyl)-5-methyl-1H-pyrazol-4-yl)-6-((4-((S)-3-((2S,4R)-1-((S)-2-(1-cyanocyclopropane-1-carboxamido)-3,3-dimethylbutanoyl)-4-hydroxypyrrolidine-2-carboxamido)-3-(4-(4-methylthiazol-5-yl)phenyl)propanamido)butyl)carbamoyl)pyridin-2-yl)-N-(benzo[d]thiazol-2-yl)-1,2,3,4-tetrahydroisoquinoline-8-carboxamide] it is 10 to 100 nM. On the same count and under the same terms, the figure for `Cc1c(-c2ccc(N3CCc4cccc(C(=O)Nc5nc6ccccc6s5)c4C3)nc2C(=O)NCCOCCNc2cccc3c2C(=O)N(C2CCC(=O)NC2=O)C3=O)cnn1CC12CC3CC(CC(C3)C1)C2` (stereo not shown) [degrader #6, 2-(5-(1-(adamantan-1-ylmethyl)-5-methyl-1H-pyrazol-4-yl)-6-((2-(2-((2-(2,6-dioxopiperidin-3-yl)-1,3-dioxoisoindolin-4-yl)amino)ethoxy)ethyl)carbamoyl)pyridin-2-yl)-N-(benzo[d]thiazol-2-yl)-1,2,3,4-tetrahydroisoquinoline-8-carboxamide] is 10 to 100 nM.

The same assay, now with this note: MOLT4 acute lymphoblastic leukemia cells, 48 h incubation.
`Cc1ncsc1-c1ccc([C@H](C)NC(=O)[C@@H]2C[C@@H](O)CN2C(=O)[C@@H](NC(=O)CCCCNC(=O)C23CC4CC(CC(Cn5ncc(-c6ccc(N7CCc8cccc(C(=O)Nc9nc%10ccccc%10s9)c8C7)nc6C(=O)O)c5C)(C4)C2)C3)C(C)(C)C)cc1` [degrader #42, 6-(8-(benzo[d]thiazol-2-ylcarbamoyl)-3,4-dihydroisoquinolin-2(1H)-yl)-3-(1-(((1S,3r)-3-((5-(((S)-1-((2S,4R)-4-hydroxy-2-(((S)-1-(4-(4-methylthiazol-5-yl)phenyl)ethyl)carbamoyl)pyrrolidin-1-yl)-3,3-dimethyl-1-oxobutan-2-yl)amino)-5-oxopentyl)carbamoyl)adamantan-1-yl)methyl)-5-methyl-1H-pyrazol-4-yl)picolinic acid]: the EC50 was greater than 1000 nM.

Take `Cc1c(-c2ccc(N3CCc4cccc(C(=O)Nc5nc6ccccc6s5)c4C3)nc2C(=O)NCCOCCOCCOCCCc2cccc3c2C(=O)N(C2CCC(=O)NC2=O)C3=O)cnn1CC12CC3CC(CC(C3)C1)C2` (stereo not shown) [degrader #30, 2-(5-(1-(adamantan-1-ylmethyl)-5-methyl-1H-pyrazol-4-yl)-6-((2-(2-(2-(3-(2-(2,6-dioxopiperidin-3-yl)-1,3-dioxoisoindolin-4-yl)propoxy)ethoxy)ethoxy)ethyl)carbamoyl)pyridin-2-yl)-N-(benzo[d]thiazol-2-yl)-1,2,3,4-tetrahydroisociuinoline-8-carboxamide]: the EC50 is less than 10 nM. For `Cc1c(-c2ccc(N3CCc4cccc(C(=O)Nc5nc6ccccc6s5)c4C3)nc2C(=O)NCCOCCOCCOCC#Cc2cccc3c2C(=O)N(C2CCC(=O)NC2=O)C3=O)cnn1CC12CC3CC(CC(C3)C1)C2` (stereo not shown) [degrader #26, 2-(5-(1-(adamantan-1-ylmethyl)-5-methyl-1H-pyrazol-4-yl)-6-((2-(2-(2-((3-(2-(2,6-dioxopiperidin-3-yl)-1,3-dioxoisoindolin-4-yl)prop-2-yn-1-yl)oxy)ethoxy)ethoxy)ethyl)carbamoyl)pyridin-2-yl)-N-(benzo[d]thiazol-2-yl)-1,2,3,4-tetrahydroisocuinoline-8-carboxamide], the EC50 was in the range of 10 to 100 nM. The compound `Cc1c(-c2ccc(N3CCc4cccc(C(=O)Nc5nc6ccccc6s5)c4C3)nc2C(=O)O)cnn1CC12CC3CC(C1)CC(C(=O)NCCOCCNc1cccc4c1C(=O)N(C1CCC(=O)NC1=O)C4=O)(C3)C2` (stereo not shown) [degrader #39, 6-(8-(benzo[d]thiazol-2-ylcarbamoyl)-3,4-dihydroisoquinolin-2(1H)-yl)-3-(1-(((1r,3r)-3-((2-(2-((2-(2,6-dioxopiperidin-3-yl)-1,3-dioxoisoindolin-4-yl)amino)ethoxy)ethyl)carbamoyl)adamantan-1-yl)methyl)-5-methyl-1H-pyrazol-4-yl)picolinic acid] came in with a half-maximal effective concentration (EC50) of 10 to 100 nM.

In the case of `Cc1c(-c2ccc(N3CCc4cccc(C(=O)Nc5nc6ccccc6s5)c4C3)nc2C(=O)NCCOCCOCCOCC#Cc2ccc3c(c2)CN(C2CCC(=O)NC2=O)C3=O)cnn1CC12CC3CC(CC(C3)C1)C2` (stereo not shown) [degrader #29, 2-(5-(1-(adamantan-1-ylmethyl)-5-methyl-1H-pyrazol-4-yl)-6-((2-(2-(2-((3-(2-(2,6-dioxopiperidin-3-yl)-1-oxoisoindolin-5-yl)prop-2-yn-1-yl)oxy)ethoxy)ethoxy)ethyl)carbamoyl)pyridin-2-yl)-N-(benzo[d]thiazol-2-yl)-1,2,3,4-tetrahydroisoguinoline-8-carboxamide], the EC50 was less than 10 nM.

Broadly, the EC50 is the concentration giving half of the maximal effect. Read a high EC50 as weaker potency.
